Test results as given in patent US6413999B1, “Treatment for acute physical insult to the central nervous system” (University of Saskatchewan Technologies Inc., priority 1999, dated 2002).

Tests used:
Assay type in all cases: in vivo, rat
[1] = tested on: Wistar rats with clip compression injury at the T6 spinal cord level; test: Spinal cord histomorphometry (luxol fast blue white matter) 6 weeks after injury
Protocol: (§1) Adult male Wistar rats (˜320 g) were obtained from Charles River Canada and housed in a temperature-regulated animal facility, exposed to a 12 hour light/dark cycle and had free access to food and water. Animals were treated in accordance with the guidelines of the Canadian Council on Animal Care. Prior in surgery, the rats received the analgesic Buprenorphine-hydrochloride subcutaneously at a dose of 0.05 mg/kg and then every 12 hours for the first 72 hours following surgery. Anesthesia was performed with Halothane (5% induction and 1% maintenance). Laminectomy was performed aseptically at T5-T6 to expose the spinal cord. […]
Following 6 weeks of behavioral evaluation, the spinal cords were fixed by transcardial perfusion with 0.03M phosphate-buffered saline (pH 7.4) containing 1% sodium nitrite in rats anesthetized with Halothane, followed by perfusion (100 ml/100 g) with either 4% formaldehyde (freshly prepared from paraformaldehyde) or FAM solution (formaldehyde, acetic acid and methanol in 1:1:8 ratio) and left in the same fixative for 5 days. […] Area of white matter was quantified using Northern Eclipse™ software and expressed in pixels.

[2] = tested on: Wistar rats with clip compression injury at the T6 spinal cord level; test: Spinal cord GSH content after 50 g clip compression injury at T6; settings: 26 hours following injury and 2 hours following OTC administration; versus saline P=0.0033; FIG. 4
Protocol: as §1, with “cord. A 5-second clip compression injury was induced at the T6 spinal cord level using a modified Kerr-Lougheed aneurysm clip with a calibrated force of 50 g as described in Rivlin et al. (Surg. Neurol., 9, 39-43, 1979) and Khan et al. (Can. J. Neurol. Sci., 10, 161-165, 1983).” for “cord.”
(§2) A total of 54 animals were used to determine the onset of oxidative stress following insult. […] Spinal cord segments were frozen in liquid nitrogen and stored at −80° C. until analyzed.
GSH was measured using 5,5′-dithio-bis(2-nitrobenzoic) acid-derivatization (“DTNB”) followed by HPLC and UV detection. […] The homogenates were centrifuged at 10,000 g for 15 min and supernatants collected, derivatized and analyzed using the Shimadzu reversed-phase HPLC with ultraviolet detection. […]

[3] = tested on: Wistar rats with clip compression injury at the T6 spinal cord level; test: Functional recovery after spinal cord compression (angleboard, modified Tarlov score, BBB scale)
Protocol: as §1
A semiquantitative assessment of hindlimb function during open field walking gas performed using the modified Tarlov score (Tariq et al.). Spontaneous activity of hind limb was scored as follows: 0=total paraplegia of hindlimbs; 1=no spontaneous movements but responds to hindlimb pinch; 2=spontaneous movement; 3=able to support weight but unable to walk; 4=walks with gross deficit; 5=walks with mild deficit on broad flat surface, 6=able to walk on broad flat surface and support weight on a 1.8 cm wide ledge; 7=walks on ledge. […]

[4] = tested on: Wistar rats with clip compression injury at the T6 spinal cord level; test: Spinal cord protein carbonyl content after clip compression injury at T6; settings: 24 hours post-trauma; T5 (P<0.05), T6, T7 (P<0.01), T9 (P<0.05) versus saline; FIG. 3
Protocol: as §1, §2
Protein carbonyl content was determined spectrophotometrically using 2,4-dinitrophenylhydrazine (DNPH) to trap carbonyls with the adduct formed measured at 360 nm. Results are expressed as pmoles of DNPH incorporated per mg of protein calculated using a molar absorption coefficient of 22,000 M^−1 cm^−1 for aliphatic hydrazones.

[5] = tested on: Wistar rats with clip compression injury at the T6 spinal cord level; test: Spinal cord glutathione reductase activity after clip compression injury at T6; settings: 24 hours following spinal cord injury; T5 (P<0.05), T6, T7, T9 (P<0.01) versus saline vehicle; FIG. 2
Protocol: as §1, with “cord. A 5-second clip compression injury was induced at the T6 spinal cord level using a modified Kerr-Lougheed aneurysm clip with a calibrated force of 50 g as described in Rivlin et al. (Surg. Neurol., 9, 39-43, 1979) and Khan et al. (Can. J. Neurol. Sci., 10, 161-165, 1983).” for “cord.”
as §2
Glutathione reductase was calculated by measuring the disappearance of NADPH (SIGMA (trade-mark)) in the presence of oxidized-glutathione based upon the procedure described by Eklow et al. (Eur. J. Biochem. 138, 459-463 (1984)), as applied in Juurlink et al (Glia 22, 371-378, 1998)).

[6] = Body weight after spinal cord clip compression injury; settings: T6 clip compression; OTC 12 mmoles/kg i.p. 30 min after injury, then 4 mmoles/kg every 12 h for five days; pre-surgery 328.3±4.2 g; saline 403.9±9.5 g; P=0.0337
Protocol: Adult male Wistar rats (˜320 g) were obtained from Charles River Canada and housed in a temperature-regulated animal facility, exposed to a 12 hour light/dark cycle and had free access to food and water. Animals were treated in accordance with the guidelines of the Canadian Council on Animal Care. Prior in surgery, the rats received the analgesic Buprenorphine-hydrochloride subcutaneously at a dose of 0.05 mg/kg and then every 12 hours for the first 72 hours following surgery. Anesthesia was performed with Halothane (5% induction and 1% maintenance). Laminectomy was performed aseptically at T5-T6 to expose the spinal cord. A 5-second clip compression injury was induced at the T6 spinal cord level using a modified Kerr-Lougheed aneurysm clip with a calibrated force of 50 g as described in Rivlin et al. (Surg. Neurol., 9, 39-43, 1979) and Khan et al. (Can. J. Neurol. Sci., 10, 161-165, 1983). For delivery of drug or saline vehicle a sterile catheter was placed subcutaneously running from the dorsum to enter the peritoneal cavity ventrally; this was done before the laminectomy was performed. Thirty minutes following spinal cord compression an initial dose of OTC or phosphate-buffered saline vehicle (“saline”) was delivered intraperitoneally and then subsequent doses were administered every 12 hours for the next five days. […]

[7] = tested on: rats with unilateral carotid artery ligation and 12% oxygen atmosphere; test: Vascular event model (unilateral carotid artery ligation plus 12% oxygen): brain damage and GSH
Protocol: Nine to eleven week old rats were obtained and housed as described in Example 1A. Animals were treated in accordance with the guidelines of the Canadian Council on Animal Care.
The rats were randomly divided into two groups. Both groups of rats underwent unilateral carotid artery ligation and were then subjected to a 12% oxygen atmosphere for 35 minutes. Fifteen minutes after insult, rats of one group received an initial dose of OTC (12 mmoles/kg body weight) and rats of the other group receive the phosphate-buffered saline vehicle (“saline”). Rats received subsequent doses of OTC (4 mmoles/kg body weight) or saline, as appropriate, every 12 hours for 3 days.
Rats were sacrificed 1 week following insult and brain damage was assessed.
Brain damage following a vascular event was assessed using the method of Thornhill, et al. (Brain Res. 825(1-2):36-45 (1999).

[8] = tested on: rats with acute physical insult to the CNS; test: Inflammation (observation, ICAM-1 and iNOS levels) following insult; settings: OTC following insult, compared to saline-treated controls
Protocol: Inflammation was assessed by observation and by measurement of ICAM-1 and iNOS levels. A significant increase in inflammation was observed following insult.

SMILES: O=C1N[C@H](C(=O)O)CS1 [OTC, L-2-oxothiazolidine-4-carboxylate]
- grey matter sparing at T6 [1]: did not result in grey matter sparing
- GSH levels in the affected CNS region [2]: increased GSH levels
- modified Tarlov score ([3]; 6 weeks after trauma, scale 0-7, after trauma 1, saline 2.4, FIG. 8a): 4.1
- angleboard capacity angle ([3]; 6 weeks recovery, before insult 59°, after insult 28°, saline 32°, FIG. 7): 42 °
- protein carbonyl content in spinal cord [4]: significantly decreased protein carbonyl formation
- glutathione reductase activity in spinal cord [5]: significantly inhibited the decrease in glutathione reductase activity
- weight of animals 6 weeks after surgery [6]: 434.3 ± 9.3 g
- brain damage score ([7]; 1 week following insult, OTC 12 mmoles/kg 15 min after insult, then 4 mmoles/kg every 12 h for 3 days, saline score 2.67, FIG. 9): 1.86
- concentrations of GSH in the affected CNS regions ([7]; insult by a vascular event, compared to saline-treated animals): higher concentrations of GSH
- levels of inflammation (ICAM-1 and iNOS) [8]: lower levels of inflammation
